Structures can show the parent of a compound that is named as a salt. Where two headings read alike, the source gives them in different places.
Key:
mouse neutrophils = experiment: ROS inhibition in mouse neutrophils; format: cell-based; conditions: average of several experiments; for <90% ROS Inhibition: concentration
Description: (§1) PMA was again used to stimulate ROS production in neutrophils and the effects of the drugs were monitored at increasing concentration levels.

human neutrophils [1] = experiment: ROS production by PMA-stimulated purified human neutrophils; format: cell-based; conditions: for ROS production in the presence of PMA: 10 uM concentration; for ROS production in the presence of PMA / IC50 / <90% ROS Inhibition: human neutrophils; for IC50 / <90% ROS Inhibition: PMA stimulated, average of several experiments; for IC50: read-out: ROS Inhibition IC50; for ROS inhibitor effectiveness over 100 nm to 10 uM: PMA stimulated human neutrophils; for <90% ROS Inhibition: concentration
Procedure: Following blood withdrawal, blood was overlaid on 3% dextran in 0.9% NaCl in a 1:1 ratio and left at RT for 25 min to allow erythrocyte sedimentation. Residual RBCs were lysed by adding water for 30 sec and stopped by adding 2.5% BSA/5×PBS. WBCs were then diluted in 0.5% BSA/1×PBS and total number of cells was counted. Purification of pure neutrophils (HDNs) was done by overlaying blood after RBC sedimentation in a 1:1 ratio on Histopaque-1077. After 30 min centrifugation at 400 g, pure neutrophils were found at the bottom of the tube (pellet). Mononuclear cells (LDF—low density fraction) settle between the Histopaque-1077 and the 0.9% saline.
(§2) A high-throughput screen was performed to find molecules that inhibit ROS production by neutrophils. Extracted human neutrophils were purified and kept in culture. The cells were then exposed to various drugs and ROS production was monitored over time. Compounds that also scavenged hydrogen peroxide (H2O2) and/or lowered neutrophil ATP levels (reflecting toxicity) were removed. The top hits from the screen were selected for further analysis.
Neutrophils not exposed to PMA were used as a negative control and neutrophils exposed to only PMA were used as a positive control.
as §1

human neutrophils [2] = experiment: High-throughput screen for molecules that inhibit ROS production by neutrophils (PMA and fMLP stimulation); format: cell-based
Procedure: as §2, with “analysis. 160 basal hits were tested for their ability to inhibit neutrophil ROS production. 64 molecules were able to inhibit ROS production in the presence of PMA activation. 67 molecules were able to inhibit ROS production in the presence of N-Formylmethionine-leucyl-phenylalanine (fMLP). Of those 47 molecules were able to inhibit ROS production by both stimulation methods.” for “analysis.”

[3] = tested on: whole blood samples from healthy human subjects; experiment: ROS levels in whole blood samples from healthy human subjects, without or with PMA; format: cell-based; conditions: for reduction in ROS in whole blood treated with PMA: higher dose (5 uM)
Procedure: A high and low concentration were tested for each compound. […] Next, the compounds were tested on whole blood treated with PMA.

[4] = tested on: neutrophils isolated from blood; experiment: Neutrophil survival by FACS (Annexin V and PI double positive = dead); format: cell-based; conditions: 2 hours culture, drugs at 1 uM
Procedure: To test this hypothesis, neutrophils isolated from blood were cultured with the various drugs (concentration 1 uM) for 2 hours and then neutrophil survival was monitored by FACS. Cells that were double positive for Anexin V staining and PI staining were considered dead.

[5] = Circulating ALT levels in mice after drug administration; format: in vivo, mouse; conditions: 48 hours after drug administration
Procedure: One of the benefits of targeting of these drugs directly to neutrophils is to decrease their unwanted side effects. As mentioned early, many of these compounds have known side effects with respect to neutrophil differentiation in the bone marrow. Targeting to mature neutrophils decreases this unwanted side effect. To test if side effects are indeed decreased liver enzyme levels were measured in the mice after administration of free Stelazine and neutrophil targeted Stelazine. […] It is thus clear that neutrophil targeting is particularly beneficial for the selected compounds.

LPS treated mice = experiment: ROS in the lungs of LPS treated mice (lung inflammation model); format: in vivo, mouse
Procedure: (5B) Bar graph of relative ROS levels in the lungs of LPS treated mice, LPS treated mice administered free Stelazine, Stelazine loaded naked liposomes and Stelazine loaded targeting-peptide decorated liposomes. (5C) Images of ROS levels in LPS treated lungs administered various compositions of Stelazine and/or naked or peptide-decorated liposomes (referred to as “TENN”). 4 hours following treatment with the described molecules, animals were injected with luminol and ROS in the lungs was quantified using IVIS.
Mice were given 150 ug LPS by inhalation and left for 2 days. […] The LPS was inhaled on Day 0, and then the dosing of the drugs was performed in the evening of day 1 and the morning of day 2. Three different formulations of Stelazine were tested by IV administration: free Stelazine administered in PBS, Stelazine loaded into liposomes in PBS, and Stelazine loaded into liposomes decorated with neutrophil targeting peptides in PBS.

Structure (SMILES) | IC50 (mouse neutrophils; Neutrophil) [µM] | <90% ROS Inhibition (mouse neutrophils) [µM] | ROS production in the presence of PMA (human neutrophils [1]) | IC50 (human neutrophils [1]; Neutrophil) [µM] | <90% ROS Inhibition (human neutrophils [1]) [µM] | also measured
CCN1CCN(Cc2ccc(Nc3ncc(F)c(-c4cc(F)c5nc(C)n(C(C)C)c5c4)n3)nc2)CC1 [Abemaciclib] | 1.5 | 5 | more effective | 1 | 2 | ROS inhibitor effectiveness over 100 nm to 10 uM (human neutrophils [1]): most effective ROS inhibitors
CN(C)C/C=C/C(=O)Nc1cc2c(Nc3ccc(F)c(Cl)c3)ncnc2cc1O[C@H]1CCOC1 [Afatanib Maleate, Afatinib Maleate] | 2.5 | 8 | – | – | – | –
CN(C)C/C=C/C(=O)Nc1cc2c(Nc3ccc(F)c(Cl)c3)ncnc2cc1O[C@H]1CCOC1 [Afatinib] | – | – | more modest reduction | 4 | 9 | –
CN(C)CCC=C1c2ccccc2CCc2ccccc21 [Amitriptyline] | – | – | – | – | – | ROS inhibition in the screen (human neutrophils [2]): inhibited ROS production
COc1cc(Nc2c(C#N)cnc3cc(OCCCN4CCN(C)CC4)c(OC)cc23)c(Cl)cc1Cl [Bosutinib] | 0.15 | 1.5 | more effective | 0.2 | 0.75 | ROS inhibition in whole blood treated with PMA ([3]; 1 uM): this inhibition was quickly lost; ROS inhibition in whole blood treated with PMA ([3]; 5 uM): highly effective at ROS inhibition; ROS inhibitor effectiveness over 100 nm to 10 uM (human neutrophils [1]): most effective ROS inhibitors
CN(C)CCCN1c2ccccc2CCc2ccc(Cl)cc21 [Clomipramine] | – | 7 | more effective | – | 5 | ROS inhibition in whole blood treated with PMA ([3]; 5 uM): less strong effect; reduction in ROS in whole blood treated with PMA [3]: > 50%; ROS inhibitor effectiveness over 100 nm to 10 uM (human neutrophils [1]): most effective ROS inhibitors
CCCCOc1ccc(C(=O)CCN2CCCCC2)cc1 [Dyclonine] | 2 | 5 | – | 2.5 | 7 | ROS levels relative to unstimulated neutrophils (human neutrophils [1]; 10 μM): 44 % of negative control cells
CC(C)(C)C(=O)/C(=C\c1cccc([N+](=O)[O-])c1)n1cncn1 [Nexinhib] | – | – | – | – | 5 | IC50 (mouse neutrophils): 8 µM; ROS inhibition in whole blood treated with PMA ([3]; 5 uM): less strong effect; reduction in ROS in whole blood treated with PMA [3]: > 50%; IC50 (human neutrophils [1]): 1.5 µM
COC(=O)C1=C(C)NC(C)=C(C(=O)OCC(C)C)C1c1ccccc1[N+](=O)[O-] (centres unmarked) [Nisoldipine] | – | – | more modest reduction | – | – | –
CCCCCCCCCCCCCC(=O)O[C@@H]1[C@@H](C)[C@@]2(O)[C@@H](C=C(CO)C[C@]3(O)C(=O)C(C)=C[C@@H]23)[C@@H]2C(C)(C)[C@]12OC(C)=O [PMA, Phorbol 12-myristate 13-acetate] | – | – | – | – | – | increase in cell death as compared to control [4]: ~50%
CC(=O)c1c(C)c2cnc(Nc3ccc(N4CCNCC4)cn3)nc2n(C2CCCC2)c1=O [Palbociclib] | – | – | strongly reduced ROS production | – | – | –
CN(C)C(=O)c1cc2cnc(Nc3ccc(N4CCNCC4)cn3)nc2n1C1CCCC1 [Ribociclib] | – | – | more modest reduction | – | – | –
CC(C)(C)C(=O)Oc1ccc(S(=O)(=O)Nc2ccccc2C(=O)NCC(=O)O)cc1 [Sivelestat] | – | – | – | – | – | increase in cell death as compared to control [4]: < 6%
CN1CCN(CCCN2c3ccccc3Sc3ccc(C(F)(F)F)cc32)CC1 [Stelazine, Trifluoperazine] | 2.5 | 4 | more effective | 1 | 4 | alanine aminotransferase (ALT) levels in the blood [5]: increased alanine aminotransferase (ALT) levels in the blood; ROS levels in LPS treated lungs, luminol/IVIS imaging (LPS treated mice; 4 hours following treatment): had an effect on ROS levels; reduction in ROS in the lungs as compared to the untreated control (LPS treated mice; IV, 48 hours after LPS administration): ~50%; ROS inhibitor effectiveness over 100 nm to 10 uM (human neutrophils [1]): most effective ROS inhibitors
